# Laboratory results published in US6706663B2, “Herbicidal 3-heterocyclic substituted benzisothiazole and benzisoxazole compounds” (Wyeth, priority 2000, dated 2004).
# Tests used:
# [1] = test system: ECHCG (Echinochloa crus-galli); assay: Preemergence herbicidal evaluation; format: in vivo, (L.) Beau; conditions: rated 4-5 weeks after treatment
# Summary of the method: (§1)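 Visual 0-9 rating versus untreated control, taken four to five weeks post-treatment, scoring stand, vigor, malformation, size, chlorosis and overall appearance. Compound applied as aqueous acetone spray to freshly seeded soil cups, then kept under standard greenhouse care.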
# [2] = test system: SETVI (Setaria viridis); assay: Preemergence herbicidal evaluation; format: in vivo, (L.) Beau; conditions: rated 4-5 weeks after treatment
# Summary of the method: as §1
# [3] = test system: MOOVA (Monochoria vaginalis); assay: Flooded paddy, preemergence weed control; format: in vivo, Presl.; conditions: rated 3-4 weeks after treatment, 0-9 rating scale
# Summary of the method: (§2)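 Seeds or propagating organs were sown in the top 0.5 cm of silt loam soil, flooded, and the water kept 1.5 to 3 cm above the soil surface throughout. Plants were grown in the greenhouse and rated visually on a 0-9 scale against a control.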
# [4] = test system: ORYSAT (Rice, Tebonnet); assay: Preemergence herbicidal evaluation; format: in vivo, Oryza sativa, (L.) Tebonnet; conditions: rated 4-5 weeks after treatment
# [5] = test system: TRZAWR (Wheat, Winter, cv Riband); assay: Postemergence herbicidal evaluation; format: in vivo, Triticum aestivum; conditions: postemergence
# Summary of the method: (§3)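 Visual 0–9 injury scores versus control plants, covering stand, vigour, malformation, size, chlorosis and general appearance, taken four to five weeks post-spray and averaged over replicate tests. Plants were sprayed at roughly two weeks old and held on greenhouse benches.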
# [6] = test system: IPOHE (Ipomoea hederacea); assay: Postemergence herbicidal evaluation; format: in vivo, (L.) Jacq.; conditions: postemergence
# Summary of the method: as §3
# [7] = test system: ORYSAT (Rice, Tebonnet); assay: Postemergence herbicidal evaluation; format: in vivo, Oryza sativa, (L.) Tebonnet; conditions: postemergence
# Summary of the method: as §3
# [8] = test system: GALAP (Galium aparine); assay: Preemergence herbicidal evaluation; format: in vivo; conditions: rated 4-5 weeks after treatment
# Summary of the method: as §1
# [9] = test system: ABUTH (Abutilon theophrasti); assay: Postemergence herbicidal evaluation; format: in vivo, Medic.; conditions: postemergence
# Summary of the method: as §3
# [10] = test system: SETVI (Setaria viridis); assay: Postemergence herbicidal evaluation; format: in vivo, (L.) Beau; conditions: postemergence
# Summary of the method: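 ~2-wk seedlings; spray 0.0040–1.000 kg/ha in 50/50 acetone/water + 0.5% TWEEN 20, 40 psi nozzle. Greenhouse hold; visual 0–9 rating vs control at 4–5 wk; multiple tests averaged.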
# [11] = test system: SAGPY (Sagittaria pygmaea); assay: Flooded paddy, preemergence weed control; format: in vivo, L.; conditions: rated 3-4 weeks after treatment, 0-9 rating scale
# Summary of the method: as §2
# [12] = test system: GALAP (Galium aparine); assay: Postemergence herbicidal evaluation; format: in vivo; conditions: postemergence
# Summary of the method: as §3
# [13] = test system: CASOB (Cassia obtusifolia); assay: Postemergence herbicidal evaluation; format: in vivo, L.; conditions: postemergence
# Summary of the method: as §3
# [14] = test system: AMBEL (Ambrosia artemisifolia); assay: Postemergence herbicidal evaluation; format: in vivo, L.; conditions: postemergence
# Summary of the method: as §3
# [15] = test system: CHEAL (Chenopodium album); assay: Postemergence herbicidal evaluation; format: in vivo, L.; conditions: postemergence
# Summary of the method: as §3
# [16] = test system: CASOB (Cassia obtusifolia); assay: Preemergence herbicidal evaluation; format: in vivo, L.; conditions: rated 4-5 weeks after treatment
# Summary of the method: as §1
# [17] = test system: AMBEL (Ambrosia artemisifolia); assay: Preemergence herbicidal evaluation; format: in vivo, L.; conditions: rated 4-5 weeks after treatment
# Summary of the method: as §1
# [18] = test system: CHEAL (Chenopodium album); assay: Preemergence herbicidal evaluation; format: in vivo, L.; conditions: rated 4-5 weeks after treatment
# Summary of the method: as §1
# [19] = test system: CYPIR (Cyperus iria); assay: Flooded paddy, preemergence weed control; format: in vivo; conditions: rated 3-4 weeks after treatment, 0-9 rating scale
# Summary of the method: as §2
structure (smiles),measurement,setting,value
"CC(C)C1COC(c2nsc3ccc(-n4c(=O)cc(C(F)(F)F)n(C)c4=O)cc23)=N1 (stereo not drawn) [Compound 74, 3-[3-(4-isopropyl-2-oxazolin-2-yl)-1,2-benzisothiazol-5-yl]-1-methyl-6-(trifluoromethyl)uracil]",Preemergence herbicidal rating ECHCG,[1]; Rate 0.0620 kg/ha,0.0
same,Preemergence herbicidal rating ECHCG,[1]; Rate 0.1250 kg/ha,2.0
same,Preemergence herbicidal rating ECHCG,[1]; Rate 0.2500 kg/ha,6.0
same,Preemergence herbicidal rating SETVI,[2]; Rate 0.0620 kg/ha,0.0
same,Preemergence herbicidal rating SETVI,[2]; Rate 0.1250 kg/ha,2.0
same,Preemergence herbicidal rating SETVI,[2]; Rate 0.2500 kg/ha,8.0
same,"herbicidal rating, MOOVA",[3]; rate 0.0080 kg/ha,4.5
same,"herbicidal rating, MOOVA",[3]; rate 0.0320 kg/ha,9.0
same,"herbicidal rating, MOOVA",[3]; rate 0.1250 kg/ha,9.0
same,Preemergence herbicidal rating ORYSAT,[4]; Rate 0.0620 kg/ha,1.0
same,Preemergence herbicidal rating ORYSAT,[4]; Rate 0.1250 kg/ha,1.0
same,Preemergence herbicidal rating ORYSAT,[4]; Rate 0.2500 kg/ha,5.0
same,TRZAWR herbicidal rating,[5]; rate 0.0320 kg/ha,3.5
same,TRZAWR herbicidal rating,[5]; rate 0.0620 kg/ha,4.0
same,IPOHE herbicidal rating,[6]; rate 0.0320 kg/ha,7.0
same,IPOHE herbicidal rating,[6]; rate 0.0620 kg/ha,9.0
same,ORYSAT herbicidal rating,[7]; rate 0.0320 kg/ha,3.5
same,ORYSAT herbicidal rating,[7]; rate 0.0620 kg/ha,4.0
same,Preemergence herbicidal rating GALAP,[8]; Rate 0.0620 kg/ha,6.0
same,Preemergence herbicidal rating GALAP,[8]; Rate 0.1250 kg/ha,7.0
same,Preemergence herbicidal rating GALAP,[8]; Rate 0.2500 kg/ha,9.0
same,ABUTH herbicidal rating,[9]; rate 0.0320 kg/ha,9.0
same,ABUTH herbicidal rating,[9]; rate 0.0620 kg/ha,9.0
same,SETVI herbicidal rating,[10]; rate 0.0320 kg/ha,2.0
same,SETVI herbicidal rating,[10]; rate 0.0620 kg/ha,2.0
same,"herbicidal rating, SAGPY",[11]; rate 0.0080 kg/ha,0.0
same,"herbicidal rating, SAGPY",[11]; rate 0.0320 kg/ha,1.5
same,"herbicidal rating, SAGPY",[11]; rate 0.1250 kg/ha,7.0
same,GALAP herbicidal rating,[12]; rate 0.0320 kg/ha,6.0
same,GALAP herbicidal rating,[12]; rate 0.0620 kg/ha,8.0
same,CASOB herbicidal rating,[13]; rate 0.0320 kg/ha,2.0
same,CASOB herbicidal rating,[13]; rate 0.0620 kg/ha,1.0
same,AMBEL herbicidal rating,[14]; rate 0.0320 kg/ha,9.0
same,AMBEL herbicidal rating,[14]; rate 0.0620 kg/ha,9.0
same,CHEAL herbicidal rating,[15]; rate 0.0320 kg/ha,9.0
same,CHEAL herbicidal rating,[15]; rate 0.0620 kg/ha,9.0
same,Preemergence herbicidal rating CASOB,[16]; Rate 0.0620 kg/ha,0.0
same,Preemergence herbicidal rating CASOB,[16]; Rate 0.1250 kg/ha,0.0
same,Preemergence herbicidal rating CASOB,[16]; Rate 0.2500 kg/ha,3.0
same,Preemergence herbicidal rating AMBEL,[17]; Rate 0.0620 kg/ha,0.0
same,Preemergence herbicidal rating AMBEL,[17]; Rate 0.1250 kg/ha,6.0
same,Preemergence herbicidal rating AMBEL,[17]; Rate 0.2500 kg/ha,9.0
same,Preemergence herbicidal rating CHEAL,[18]; Rate 0.0620 kg/ha,9.0
same,Preemergence herbicidal rating CHEAL,[18]; Rate 0.1250 kg/ha,9.0
same,Preemergence herbicidal rating CHEAL,[18]; Rate 0.2500 kg/ha,9.0
same,"herbicidal rating, CYPIR",[19]; rate 0.0080 kg/ha,0.0
same,"herbicidal rating, CYPIR",[19]; rate 0.0320 kg/ha,6.0
same,"herbicidal rating, CYPIR",[19]; rate 0.1250 kg/ha,9.0
